{
  "source": "patent US20230321066A1",
  "about": "“PREVENTATIVE TREATMENT OF MIGRAINE” (priority 2020, published 2023)",
  "key": {"[1]": {"tested_on": "episodic and chronic migraine patients", "test": "BHV3000-305 Phase 2/3 randomized, double-blind, placebo-controlled study of rimegepant in migraine prevention: efficacy", "format": "in vivo, human", "method": "Clinical Trial—BHV3000-305: A Phase 2/3, Randomized, Double-blind, Placebo-controlled Study to Evaluate the Efficacy and Safety of Rimegepant in Migraine Prevention (ClinicalTrials.gov Identifier: NCT03732638).\nA phase 2/3 clinical study was conducted with 1629 participants, as follows.\nThe purpose of this is study is to compare the efficacy of BHV-3000 (rimegepant) to placebo as a preventive treatment for migraine, as measured by the reduction in the number of migraine days per month.\n• Study Type: Interventional (Clinical Trial) • Actual Enrollment: 1629 participants • Allocation: Randomized • Intervention Model: Parallel Assignment • Masking: Triple (Participant, Care Provider, Investigator) • Primary Purpose: Prevention • Official Title: A Phase 2/3, Randomized, Double-blind, Placebo-controlled Study to Evaluate the Efficacy and Safety of Rimegepant in Migraine Prevention • Actual Study Start Date: Nov. 14, 2018 • Actual Primary Completion Date: Dec. 10, 2019\nPrimary Outcome Measures: • 1. Change from baseline in mean number of migraine days per month [Time Frame: Mean number of migraine days per month as assessed over 3 months (12 weeks)] • Change from baseline in mean number of migraine days per month as measured over the 12-week double-blind phase of the study.\nSecondary Outcome Measures: • 1. Achievement of at least a 50% reduction from baseline in mean number of moderate to severe monthly migraine days. [Time Frame: baseline to end of Week 12] • Achievement of at least a 50% reduction from baseline in mean number of moderate to severe monthly migraine days over course of the double-blind treatment phase. • 2. The mean number of rescue medication days per month. [Time Frame: baseline to end of week 12 as measure per month] • The mean number of rescue medication days per month over the course of the double-blind, treatment phase. Rescue medications include the rescue medications defined in this protocol. • 3. Adverse events. [Time Frame: baseline to end of Week 12] • Adverse events that occur in at least 5% of treated subjects; the frequency of unique subjects with serious adverse events, adverse events leading to discontinuation and clinically significant laboratory abnormalities, as reported on case report forms. • 4. The frequency of AST or ALT elevations. [Time Frame: baseline to end of Week 12] • The frequency of AST or ALT elevations>3×ULN, concurrently with bilirubin elevations>2×ULN, will be assessed by tabulating the number of unique subjects with this pairing of events. • 5. The frequency of hepatic-related adverse events and hepatic-related treatment. [Time Frame: baseline to end of Week 12] • The frequency of hepatic-related adverse events and hepatic-related treatment discontinuations will be tabulated from case report forms and will be based on unique subjects reporting such events. • 6. The mean change from baseline in the MSQ role function [Time Frame: baseline to end of Week 12] • The mean change from baseline in the MSQ role function—restrictive domain score at Week 12 of the double-blind treatment phase. • 7. The mean change from baseline in the MIDAS total score. [Time Frame: baseline to end of Week 12] • The mean change from baseline in the MIDAS total score at Week 12 of the double-blind treatment phase.\nThis pivotal study enrolled patients with both episodic and chronic migraine. The study evaluated the efficacy and safety of rimegepant 75 mg (n=370) dosed every other day for the preventive treatment of migraine in patients versus placebo (n=371) who had migraine for at least one year and 4 to 18 moderate to severe migraine attacks per month over three months prior to enrollment. During the one-month observation period, patients experienced on average 10.7 migraine days per month, with 7.4 migraine days of moderate to severe migraine during the same period."}, "[2]": {"tested_on": "episodic and chronic migraine patients", "test": "BHV3000-305 study: adverse events and liver safety on double-blind treatment"}, "[3]": {"tested_on": "episodic and chronic migraine patients", "details": "human, in vivo, 12 weeks"}, "[4]": {"details": "370 patients who received rimegepant 75 mg every other day"}, "[5]": {"details": "Severity Mild, treated subjects N = 370"}, "[6]": {"details": "Severity Moderate or Severe, treated subjects N = 370"}, "[7]": {"details": "Severity Moderate, treated subjects N = 370"}, "[8]": {"details": "Severity Total, treated subjects N = 370"}},
  "data": [
    {"molecule": "N[C@@H]1c2cccnc2[C@H](OC(=O)N2CCC(n3c(=O)[nH]c4ncccc43)CC2)CC[C@H]1c1cccc(F)c1F", "note": "[Rimegepant, [(5S,6S,9R)-5-amino-6-(2,3-difluorophenyl)-6,7,8,9-tetrahydro-5H-cyclohepta[b]pyridin-9-yl] 4-(2-oxo-3H-imidazo[4,5-b]pyridin-1-yl)piperidine-1-carboxylate]", "values": [
      {"measurement": "reduction in mean number of migraine days as compared to placebo", "setting": "[1]; (4.9−3.7)/3.7*100, participants not taking concomitant preventive treatment", "result": 32, "unit": "%"},
      {"measurement": "Change From OP in Mean Number of Total Migraine Days per Month in First Month, Least-squares mean, Difference (Rimegepant − Placebo)", "setting": "[1]; Evaluable mITT subjects, P-value 0.0013", "result": "−0.9"},
      {"measurement": "Change From OP in Mean Number of Total Migraine Days per Month Overall, Least-squares mean, Difference (Rimegepant − Placebo)", "setting": "[1]; Evaluable mITT subjects, P-value 0.0094", "result": "−0.7"},
      {"measurement": "Primary Endpoint: Change From OP in Mean Number of Total Migraine Days per Month in Last Month, Least-squares mean, Difference (Rimegepant − Placebo)", "setting": "[1]; Evaluable mITT subjects, P-value 0.0176, significant in hierarchical testing", "result": "−0.8"},
      {"measurement": "MSQoL Restrictive Role Function Domain Score Change From Baseline at Week 12, Least-squares mean, Difference (Rimegepant − Placebo)", "setting": "[1]; Evaluable mITT subjects, P-value 0.0358", "result": 3.5},
      {"measurement": ">=50% Reduction From OP in Mean Number of Moderate or Severe Migraine Days per Month in Last Month, Stratified Risk, Difference (Rimegepant − Placebo)", "setting": "[1]; Evaluable mITT subjects, P-value 0.0734", "result": 5.7},
      {"measurement": "Rescue Medication Days per Month In Last Month, Least-squares mean, Difference (Rimegepant − Placebo)", "setting": "[1]; Evaluable mITT subjects, P-value 0.3868", "result": "−0.2"},
      {"measurement": "MIDAS Total Score Change From Baseline at Week 12, Least-squares mean, Difference (Rimegepant − Placebo)", "setting": "[1]; Evaluable mITT subjects, P-value 0.9616", "result": "−0.1"},
      {"measurement": "ALT/AST elevations: relatedness to study drug as judged by independent liver monitoring panel", "setting": "[2]; [4]", "result": "did not determine any ALT/AST elevations to be in the categories of probably or definitely related to study drug"},
      {"measurement": "cases of ALT or AST>3×ULN and bilirubin>2×ULN", "setting": "[2]; [4]", "result": "no cases"},
      {"measurement": "Enterobiasis", "setting": "[2]; [5]", "result": 0, "unit": "n"},
      {"measurement": "Folliculitis", "setting": "[2]; [5]", "result": 0, "unit": "n"},
      {"measurement": "Oral candidiasis", "setting": "[2]; [5]", "result": 0, "unit": "n"},
      {"measurement": "Orchitis", "setting": "[2]; [5]", "result": 0, "unit": "n"},
      {"measurement": "Otitis media", "setting": "[2]; [5]", "result": 0, "unit": "n"},
      {"measurement": "Acute sinusitis", "setting": "[2]; [6]", "result": 0, "unit": "n"},
      {"measurement": "Appendicitis", "setting": "[2]; [6]", "result": 0, "unit": "n"},
      {"measurement": "Bacterial vaginosis", "setting": "[2]; [6]", "result": 0, "unit": "n"},
      {"measurement": "Herpes zoster", "setting": "[2]; [6]", "result": 0, "unit": "n"},
      {"measurement": "Pharyngitis streptococcal", "setting": "[2]; [6]", "result": 0, "unit": "n"},
      {"measurement": "Pneumonia", "setting": "[2]; [6]", "result": 0, "unit": "n"},
      {"measurement": "Pyelonephritis", "setting": "[2]; [6]", "result": 0, "unit": "n"},
      {"measurement": "Sepsis", "setting": "[2]; [6]", "result": 0, "unit": "n"},
      {"measurement": "Acute sinusitis", "setting": "[2]; [7]", "result": 0, "unit": "n"},
      {"measurement": "Appendicitis", "setting": "[2]; [7]", "result": 0, "unit": "n"},
      {"measurement": "Bacterial vaginosis", "setting": "[2]; [7]", "result": 0, "unit": "n"},
      {"measurement": "Herpes zoster", "setting": "[2]; [7]", "result": 0, "unit": "n"},
      {"measurement": "Pharyngitis streptococcal", "setting": "[2]; [7]", "result": 0, "unit": "n"},
      {"measurement": "Sepsis", "setting": "[2]; [7]", "result": 0, "unit": "n"},
      {"measurement": "Acute sinusitis", "setting": "[2]; [8]", "result": 0, "unit": "n"},
      {"measurement": "Appendicitis", "setting": "[2]; [8]", "result": 0, "unit": "n"},
      {"measurement": "Enterobiasis", "setting": "[2]; [8]", "result": 0, "unit": "n"},
      {"measurement": "Folliculitis", "setting": "[2]; [8]", "result": 0, "unit": "n"},
      {"measurement": "Oral candidiasis", "setting": "[2]; [8]", "result": 0, "unit": "n"},
      {"measurement": "Orchitis", "setting": "[2]; [8]", "result": 0, "unit": "n"},
      {"measurement": "Otitis media", "setting": "[2]; [8]", "result": 0, "unit": "n"},
      {"measurement": "Pelvic inflammatory disease", "setting": "[2]; [8]", "result": 0, "unit": "n"},
      {"measurement": "Pharyngitis streptococcal", "setting": "[2]; [8]", "result": 0, "unit": "n"},
      {"measurement": "Pneumonia", "setting": "[2]; [8]", "result": 0, "unit": "n"},
      {"measurement": "Pyelonephritis", "setting": "[2]; [8]", "result": 0, "unit": "n"},
      {"measurement": "Sepsis", "setting": "[2]; [8]", "result": 0, "unit": "n"},
      {"measurement": "Tooth infection", "setting": "[2]; [8]", "result": 0, "unit": "n"},
      {"measurement": "Pertussis", "setting": "[3]", "result": 0, "unit": "n"}
    ]}
  ]
}
